Data as given in US7138361B2, “Herbicidal heterocycles” (E. I. du Pont de Nemours and Company, priority 2000, dated 2006).

Key:
Format in all cases: in vivo
[1] = test system: barnyardgrass (Echinochloa crus-galli); test: Test B preemergence
How it was run: (§1)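 Pre: seeded pots sprayed, chemical in non-phytotoxic solvent/surfactant mix. Post: plants 2–18 cm, 1–4 leaf, same formulation. Greenhouse 13–15 d; visual % control vs untreated, 0–100 scale.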

[2] = test system: Surinam grass (Brachiaria decumbens); test: Test B preemergence
How it was run: as §1

corn (Zea mays) = test: Test B preemergence
How it was run: as §1

rice (Oryza saliva) = test: Test B preemergence
How it was run: as §1

[3] = test system: morning glory (Ipomoea hederacea); test: Test B preemergence
How it was run: as §1

[4] = test system: pigweed (Amaranthus retroflexus); test: Test B preemergence
How it was run: as §1

[5] = test system: giant foxtail (Setaria faberii); test: Test B preemergence
How it was run: as §1

[6] = test system: cocklebur (Xanthium strumarium); test: Test B preemergence
How it was run: as §1

[7] = test system: lambsquarters (Chenopodium album); test: Test B preemergence
How it was run: as §1

[8] = test system: crabgrass (Digitaria sanguinalis); test: Test B preemergence
How it was run: as §1

[9] = test system: velvetleaf (Abutilon theophrasti); test: Test B preemergence
How it was run: as §1

[10] = test system: goosegrass (Eleusine indica); test: Test C preemergence; details: for Plant response rating (0 to 100), Goosegrass: visual evaluation after 12 to 14 days
How it was run: (§2)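 Plants held in greenhouse for 12–14 days post-application are scored by eye against controls on a 0–100 control scale. Application timing: preemergence on sown seed, or postemergence on 2–18 cm plants.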

[11] = test system: Surinam grass (Brachiaria decumbens); test: Test C preemergence; details: for Plant response rating (0 to 100), Surinam grass: visual evaluation after 12 to 14 days
How it was run: as §2

soybean (Glycine max) = test: Test C preemergence; details: for Plant response rating (0 to 100), Soybean: Rate 500 g/ha, visual evaluation after 12 to 14 days
How it was run: as §2

[12] = test system: pigweed (Amaranthus retroflexus); test: Test C preemergence; details: for Plant response rating (0 to 100), Pigweed: Rate 500 g/ha, visual evaluation after 12 to 14 days
How it was run: as §2

Nightshade = test: Test C preemergence
[13] = test system: cocklebur (Xanthium strumarium); test: Test C preemergence; details: for Plant response rating (0 to 100), Cocklebur: visual evaluation after 12 to 14 days
How it was run: as §2

[14] = test system: lambsquarters (Chenopodium album); test: Test C preemergence; details: for Plant response rating (0 to 100), Lambsquarters: Rate 500 g/ha, visual evaluation after 12 to 14 days
How it was run: as §2

[15] = test system: crabgrass (Digitaria sanguinalis); test: Test C preemergence; details: for Plant response rating (0 to 100), Crabgrass: visual evaluation after 12 to 14 days
How it was run: as §2

[16] = test system: woolly cupgrass (Eriochloa villosa); test: Test C preemergence; details: for Plant response rating (0 to 100), Cupgrass, Woolly: visual evaluation after 12 to 14 days
How it was run: as §2

[17] = test system: common ragweed (Ambrosia elatior); test: Test C preemergence; details: for Plant response rating (0 to 100), Ragweed, Common: Rate 500 g/ha, visual evaluation after 12 to 14 days
How it was run: as §2

[18] = Preemergence, Rate 500 g/ha, scale 0 to 100, 0 no effect, 100 complete control
[19] = preemergence, Rate 125 g/ha, scale of 0 to 100 where 0 is no effect and 100 is complete control, 13 to 15 days
[20] = Rate 125 g/ha, scale 0 to 100, 0 no effect, 100 complete control
[21] = preemergence, Rate 62 g/ha, scale 0 to 100
[22] = preemergence, Rate 250 g/ha, scale 0 to 100, 0 no effect, 100 complete control
[23] = Rate 250 g/ha, scale 0 to 100, 0 no effect, 100 complete control
[24] = Rate 62 g/ha, scale 0 to 100, 0 no effect, 100 complete control

## CCCC(C)c1ccn(C2CCN(c3ccc(Cl)c(OC)c3)C2=O)n1 (centres unmarked) [Compound 121]
[1]; [18]
  Plant response rating, Barnyardgrass: 100
[1]; [19]
  Plant response rating, Barnyardgrass: 40
[2]; [18]
  Plant response rating, Surinam grass: 40
[2]; [19]
  Plant response rating, Surinam grass: 0
Corn (Zea mays); [18]
  Plant response rating, Corn: 50
Corn (Zea mays); [19]
  Plant response rating, Corn: 20
Rice (Oryza saliva); [18]
  Plant response rating, Rice: 0
Rice (Oryza saliva); [19]
  Plant response rating, Rice: 0
[3]; [18]
  Plant response rating, Morningglory: 30
[3]; [19]
  Plant response rating, Morningglory: 20
[4]; [18]
  Plant response rating, Pigweed: 100
[4]; [19]
  Plant response rating, Pigweed: 100
[5]; [18]
  Plant response rating, Foxtail, Giant: 100
[5]; [19]
  Plant response rating, Foxtail, Giant: 0
[6]; [18]
  Plant response rating, Cocklebur: 30
[6]; [19]
  Plant response rating, Cocklebur: 10
[7]; [18]
  Plant response rating, Lambsquarters: 100
[7]; [19]
  Plant response rating, Lambsquarters: 100
[8]; [18]
  Plant response rating, Crabgrass: 100
[8]; [19]
  Plant response rating, Crabgrass: 10
[9]; [18]
  Plant response rating, Velvetleaf: 20
[9]; [19]
  Plant response rating, Velvetleaf: 10
[10]; [20]
  Plant response rating, Goosegrass: 100
[10]; [21]
  Plant response rating, Goosegrass: 100
[10]; preemergence, Rate 500 g/ha
  Plant response rating (0 to 100), Goosegrass: 100
[10]; [22]
  Plant response rating, Goosegrass: 100
[11]; [20]
  Plant response rating, Surinam grass: 80
[11]; [21]
  Plant response rating, Surinam grass: 20
[11]; preemergence, Rate 500 g/ha
  Plant response rating (0 to 100), Surinam grass: 100
[11]; [22]
  Plant response rating, Surinam grass: 100
Soybean (Glycine max); [20]
  Plant response rating, Soybean: 60
Soybean (Glycine max); [21]
  Plant response rating, Soybean: 0
Soybean (Glycine max); preemergence
  Plant response rating (0 to 100), Soybean: 100
Soybean (Glycine max); [22]
  Plant response rating, Soybean: 90
[12]; [20]
  Plant response rating, Pigweed: 50
[12]; [21]
  Plant response rating, Pigweed: 20
[12]; preemergence
  Plant response rating (0 to 100), Pigweed: 100
[12]; [22]
  Plant response rating, Pigweed: 60
Nightshade; Rate 62 g/ha, scale 0 to 100
  Plant response rating, Nightshade: 10
Nightshade; [20]
  Plant response rating, Nightshade: 90
Nightshade; [23]
  Plant response rating, Nightshade: 100
[13]; [20]
  Plant response rating, Cocklebur: 20
[13]; [21]
  Plant response rating, Cocklebur: 0
[13]; preemergence, Rate 500 g/ha
  Plant response rating (0 to 100), Cocklebur: 100
[13]; [22]
  Plant response rating, Cocklebur: 50
[14]; [20]
  Plant response rating, Lambsquarters: 100
[14]; [21]
  Plant response rating, Lambsquarters: 100
[14]; preemergence
  Plant response rating (0 to 100), Lambsquarters: 100
[14]; [22]
  Plant response rating, Lambsquarters: 100
[15]; [20]
  Plant response rating, Crabgrass: 100
[15]; [21]
  Plant response rating, Crabgrass: 100
[15]; preemergence, Rate 500 g/ha
  Plant response rating (0 to 100), Crabgrass: 100
[15]; [22]
  Plant response rating, Crabgrass: 100
[16]; [20]
  Plant response rating, Cupgrass, Woolly: 100
[16]; [21]
  Plant response rating, Cupgrass, Woolly: 80
[16]; preemergence, Rate 500 g/ha
  Plant response rating (0 to 100), Cupgrass, Woolly: 100
[16]; [22]
  Plant response rating, Cupgrass, Woolly: 100
[17]; [20]
  Plant response rating, Ragweed, Common: 90
[17]; [21]
  Plant response rating, Ragweed, Common: 0
[17]; preemergence
  Plant response rating (0 to 100), Ragweed, Common: 100
[17]; [22]
  Plant response rating, Ragweed, Common: 90

## CC(C)Oc1cccc(N2CCC(n3ccc(C(C)C)n3)C2=O)c1 (centres unmarked) [Compound 82]
[1]; [18]
  Plant response rating, Barnyardgrass: 100
[1]; [19]
  Plant response rating, Barnyardgrass: 100
[2]; [18]
  Plant response rating, Surinam grass: 100
[2]; [19]
  Plant response rating, Surinam grass: 90
Corn (Zea mays); [18]
  Plant response rating, Corn: 20
Corn (Zea mays); [19]
  Plant response rating, Corn: 0
Rice (Oryza saliva); [18]
  Plant response rating, Rice: 100
Rice (Oryza saliva); [19]
  Plant response rating, Rice: 70
[3]; [18]
  Plant response rating, Morningglory: 0
[3]; [19]
  Plant response rating, Morningglory: 0
[4]; [18]
  Plant response rating, Pigweed: 100
[4]; [19]
  Plant response rating, Pigweed: 100
[5]; [18]
  Plant response rating, Foxtail, Giant: 100
[5]; [19]
  Plant response rating, Foxtail, Giant: 100
[6]; [18]
  Plant response rating, Cocklebur: 0
[6]; [19]
  Plant response rating, Cocklebur: 0
[7]; [18]
  Plant response rating, Lambsquarters: 100
[7]; [19]
  Plant response rating, Lambsquarters: 100
[8]; [18]
  Plant response rating, Crabgrass: 100
[8]; [19]
  Plant response rating, Crabgrass: 100
[9]; [18]
  Plant response rating, Velvetleaf: 0
[9]; [19]
  Plant response rating, Velvetleaf: 0
[10]; [24]
  Plant response rating, Goosegrass: 90
[10]; [20]
  Plant response rating, Goosegrass: 100
[10]; preemergence, Rate 250 g/ha
  Plant response rating (0 to 100), Goosegrass: 100
[10]; preemergence, Rate 500 g/ha
  Plant response rating (0 to 100), Goosegrass: 100
[11]; [24]
  Plant response rating, Surinam grass: 10
[11]; [20]
  Plant response rating, Surinam grass: 80
[11]; preemergence, Rate 250 g/ha
  Plant response rating (0 to 100), Surinam grass: 70
[11]; preemergence, Rate 500 g/ha
  Plant response rating (0 to 100), Surinam grass: 100
Soybean (Glycine max); [20]
  Plant response rating, Soybean: 10
Soybean (Glycine max); preemergence
  Plant response rating (0 to 100), Soybean: 60
Soybean (Glycine max); [22]
  Plant response rating, Soybean: 30
[12]; [20]
  Plant response rating, Pigweed: 70
[12]; preemergence
  Plant response rating (0 to 100), Pigweed: 0
[12]; [22]
  Plant response rating, Pigweed: 100
Nightshade; [24]
  Plant response rating, Nightshade: 0
Nightshade; [20]
  Plant response rating, Nightshade: 10
Nightshade; [23]
  Plant response rating, Nightshade: 30
[13]; [24]
  Plant response rating, Cocklebur: 0
[13]; [20]
  Plant response rating, Cocklebur: 10
[13]; preemergence, Rate 250 g/ha
  Plant response rating (0 to 100), Cocklebur: 20
[13]; preemergence, Rate 500 g/ha
  Plant response rating (0 to 100), Cocklebur: 40
[14]; [24]
  Plant response rating, Lambsquarters: 100
[14]; [20]
  Plant response rating, Lambsquarters: 100
[14]; preemergence
  Plant response rating (0 to 100), Lambsquarters: 100
[14]; [22]
  Plant response rating, Lambsquarters: 100
[15]; [24]
  Plant response rating, Crabgrass: 100
[15]; [20]
  Plant response rating, Crabgrass: 100
[15]; preemergence, Rate 250 g/ha
  Plant response rating (0 to 100), Crabgrass: 100
[15]; preemergence, Rate 500 g/ha
  Plant response rating (0 to 100), Crabgrass: 100
[16]; [24]
  Plant response rating, Cupgrass, Woolly: 70
[16]; [20]
  Plant response rating, Cupgrass, Woolly: 90
[16]; preemergence, Rate 250 g/ha
  Plant response rating (0 to 100), Cupgrass, Woolly: 90
[16]; preemergence, Rate 500 g/ha
  Plant response rating (0 to 100), Cupgrass, Woolly: 100
[17]; [20]
  Plant response rating, Ragweed, Common: 0
[17]; preemergence
  Plant response rating (0 to 100), Ragweed, Common: 100
[17]; [22]
  Plant response rating, Ragweed, Common: 50
